Assay results published in patent publication US10501516B2, “Peptide compound” (TAKEDA PHARMACEUTICAL COMPANY LIMITED, priority 2016, dated 2019).
Square brackets hold non-standard residues; d marks the D form. Side chains are listed from the residue outwards. Peptide text beside a SMILES is read from it. * marks the point of attachment. C18 diacid = O=C(O)CCCCCCCCCCCCCCCCC(=O)*; Phe(2-F) = N[C@@H](Cc1ccccc1F)C(=O)O; NMeY = CN[C@@H](Cc1ccc(O)cc1)C(=O)O; Palmitoyl = CCCCCCCCCCCCCCCC(=O)*; αMeF = C[C@](N)(Cc1ccccc1)C(=O)O; Iva = CC[C@](C)(N)C(=O)O; Aib = CC(C)(N)C(=O)O

How the values were obtained:
[1] = target: T1, human GLP-1R (Homo sapiens, UniProt P43220); assay: Reporter assay of human GLP-1R gene (agonist activity, intracellular cAMP as index); type: cell-based; conditions: Cre-luc reporter, hGLP-1R/Crel cells (CHO-K1), 4 hours
T1 construct: expressed in transfected cells; host or cells: CHO-K1 Cre-luc reporter cells (hGLP-1R/Crel cells)
T1 sequence (P43220 24-463): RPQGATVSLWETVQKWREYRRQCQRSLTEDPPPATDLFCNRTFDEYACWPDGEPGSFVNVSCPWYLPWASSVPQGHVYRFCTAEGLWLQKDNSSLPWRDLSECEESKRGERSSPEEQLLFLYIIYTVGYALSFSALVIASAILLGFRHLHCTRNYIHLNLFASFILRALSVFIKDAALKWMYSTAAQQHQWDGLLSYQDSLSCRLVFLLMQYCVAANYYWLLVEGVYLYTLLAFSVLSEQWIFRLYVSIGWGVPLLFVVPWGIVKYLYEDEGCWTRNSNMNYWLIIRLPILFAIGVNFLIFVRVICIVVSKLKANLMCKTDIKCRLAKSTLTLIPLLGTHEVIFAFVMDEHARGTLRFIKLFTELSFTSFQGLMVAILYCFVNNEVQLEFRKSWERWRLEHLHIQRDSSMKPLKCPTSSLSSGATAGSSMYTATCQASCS
Excerpt: Evaluation of Agonist Activity Against Human NPY2R, Human GIPR, and Human GLP-1R Using Change in Intracellular cAMP Concentration as Index
The human GLP-1R gene having a sequence identical to the sequence of GenBank Accession No. NM_002062 was cloned into pIRESneo3 vector (Clontech Laboratories, Inc.) to prepare hGLP-1R/pIRESneo3. This vector was introduced to the Cre-luc reporter cells obtained in (1) to obtain transformants. Next, a cell line induced to express luciferase, i.e., hGLP-1R/Crel cells, were selected from the obtained transformants by the addition of human GLP-1(7-37) peptide.
The hGIPR/CRE-LUC/CHO-K1 cells or the hGLP-1R/Crel cells were inoculated at a cell density of 25 μL/well (5,000 cells/well) to a 384-well white plate (Corning, 3570), and cultured overnight in Ham F12 medium containing 10% fetal bovine serum, 100 U/mL penicillin and 100 μg/mL streptomycin in a CO2 incubator of 37° C. On the next day, a medium containing a test compound was added at a concentration of 5 μL/well to the cells, and the resultant cells were incubated for 4 hours in a CO2 incubator of 37° C. to give the final concentration of 1 μM. SteadyGlo (Promega) was added thereto at a concentration of 30 μL/well, and the mixture was shaken with light shielded. After 30 minutes, the luciferase activity was measured using a plate reader Envision (PerkinElmer). For the GIPR agonist activity, the luciferase activity in the presence of 10 μM GIP was defined as 100%, and the luciferase activity from the addition of DMSO instead of the test compound was defined as 0%. The GIPR agonist activity was calculated with a rise in intracellular cAMP concentration as an index.
For the GLP-1R agonist activity, assay similar to above was conducted using the hGLP-1R/Crel cells. The luciferase activity in the presence of 10 μM GLP-1 was defined as 100%, and the luciferase activity from the addition of DMSO instead of the test compound was defined as 0%. The GLP-1R agonist activity was calculated with a rise in intracellular cAMP concentration as an index.

[2] = target: T2, human GIPR (Homo sapiens, UniProt P48546); assay: Reporter assay of human GIPR gene (agonist activity, intracellular cAMP as index); type: cell-based; conditions: Cre-luc reporter, hGIPR/CHO-K1 cells, 4 hours
T2 construct: expressed in transfected cells; host or cells: CHO-K1 Cre-luc reporter cells (hGIPR/CHO-K1, also called hGIPR/CRE-LUC/CHO-K1)
T2 sequence (P48546 22-466): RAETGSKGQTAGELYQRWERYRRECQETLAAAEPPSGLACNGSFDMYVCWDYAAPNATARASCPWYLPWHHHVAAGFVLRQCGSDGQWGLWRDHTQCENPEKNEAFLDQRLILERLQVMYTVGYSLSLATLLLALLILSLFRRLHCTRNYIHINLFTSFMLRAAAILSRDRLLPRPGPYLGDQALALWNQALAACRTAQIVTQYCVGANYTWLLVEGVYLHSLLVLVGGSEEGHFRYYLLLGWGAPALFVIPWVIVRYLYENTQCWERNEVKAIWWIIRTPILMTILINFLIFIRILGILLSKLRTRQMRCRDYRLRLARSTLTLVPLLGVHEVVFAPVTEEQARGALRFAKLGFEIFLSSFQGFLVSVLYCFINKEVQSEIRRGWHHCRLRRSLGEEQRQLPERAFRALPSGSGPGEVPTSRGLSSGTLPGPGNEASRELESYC

[3] = test system: male C57BL/6J mouse; assay: Evaluation of feeding suppressive action in mice; type: in vivo; conditions: 30 nmol/kg s.c. once a day for 3 days; 3-days cumulative food consumption vs solvent control
In short: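 Male C57BL/6J mice, 8-9 weeks, ad libitum fed, given compound (30 or 100 nmol/2 mL in 10% DMSO saline) s.c. at 2 mL/kg once daily for 3 days. Cumulative 3-day food consumption measured by weighing; suppression rate (%) calculated relative to vehicle controls.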

[4] = target: T3, human NPY2R (Homo sapiens, UniProt P49146); assay: Reporter assay of human NPY2R gene (agonist activity, decrease in intracellular cAMP as index); type: cell-based; conditions: Cre-luc reporter, hNPY2R CHO-K1 cells, forskolin 1.2 μM, 4 hours; read-out: Agonist activity (EC50) hY2R
T3 construct: expressed in transfected cells; host or cells: CHO-K1 Cre-luc reporter cells (pAKKO1114/hNPY2R#481 No. 88 cells)
T3 sequence (P49146 1-381): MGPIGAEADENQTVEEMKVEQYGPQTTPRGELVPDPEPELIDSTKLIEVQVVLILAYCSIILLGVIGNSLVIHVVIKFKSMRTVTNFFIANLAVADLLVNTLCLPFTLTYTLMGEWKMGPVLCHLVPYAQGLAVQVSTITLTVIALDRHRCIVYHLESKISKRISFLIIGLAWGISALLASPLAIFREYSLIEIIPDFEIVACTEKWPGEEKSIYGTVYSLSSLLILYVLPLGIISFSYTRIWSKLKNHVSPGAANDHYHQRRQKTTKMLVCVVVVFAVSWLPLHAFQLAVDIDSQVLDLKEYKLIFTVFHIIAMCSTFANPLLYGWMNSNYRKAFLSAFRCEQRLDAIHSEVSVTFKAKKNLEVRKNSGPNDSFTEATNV
In short: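 CHO-K1 Cre-luciferase reporter cells stably expressing human NPY2R, stimulated with 1.2 μM forskolin and incubated with test compound at a final 1 μM for 4 h at 37° C. Luciferase read by luminescence. DMSO defined as 100% and 1 μM human PYY(3-36) as 0%, so the value reflects the decrease in cAMP.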

EC50 [1] | EC50 [2] | EC50 [4] | SMILES | Rate of feeding suppression (%) [3]
130 pM | – | – | CCCCCCCCCCCCCCCC(=O)NCC(=O)NCC(=O)NCC(=O)NCC(=O)NCCCC[C@H](NC(=O)[C@H](CC(=O)O)NC(=O)[C@H](CO)NC(=O)[C@@H](NC(=O)[C@](C)(Cc1ccccc1)NC(=O)[C@@H](NC(=O)CNC(=O)[C@H](CCC(=O)O)NC(=O)C(C)(C)NC(=O)[C@H](Cc1ccc(O)cc1)NC)[C@@H](C)O)[C@@H](C)O)C(=O)NC(C)(C)C(=O)N[C@H](C(=O)NC(C)(C)C(=O)N[C@@H](CC(C)C)C(=O)N[C@@H](CC(=O)O)C(=O)N[C@@H](CCCCN)C(=O)N[C@@H](CCC(N)=O)C(=O)N[C@@H](CCCNC(=N)N)C(=O)N[C@@H](CCC(N)=O)C(=O)N[C@@](C)(CC)C(=O)N[C@@H](CCC(=O)O)C(=O)N[C@@H](Cc1ccccc1)C(=O)N[C@H](C(=O)N[C@@H](CCCNC(=N)N)C(=O)N[C@@H](Cc1c[nH]cn1)C(=O)N[C@@H](CC(C)C)C(=O)N[C@@H](CC(C)C)C(=O)N[C@@H](CC(N)=O)C(=O)N[C@@H](CCCCN)C(=O)NC(C)(C)C(=O)N[C@H](C(=O)N[C@@H](CCCNC(=N)N)C(=O)N[C@@H](CCC(N)=O)C(=O)N[C@@H](CCCNC(=N)N)C(=O)N[C@@H](Cc1ccccc1F)C(N)=O)[C@@H](C)O)C(C)C)[C@@H](C)CC [Example 5] (H-[NMeY][Aib]EGT[αMeF]TSDK([Gly-Gly-Gly-Gly-Palmitoyl])[Aib]I[Aib]LDKQRQ[Iva]EFVRHLLNK[Aib]TRQR[Phe(2-F)]-NH2) | –
130 pM | 91 pM | – | CCCCCCCCCCCCCCCC(=O)NCC(=O)NCC(=O)NCC(=O)NCC(=O)NCCCC[C@H](NC(=O)[C@H](CC(=O)O)NC(=O)[C@H](CO)NC(=O)[C@@H](NC(=O)[C@](C)(Cc1ccccc1)NC(=O)[C@@H](NC(=O)CNC(=O)[C@H](CCC(=O)O)NC(=O)C(C)(C)NC(=O)[C@@H](N)Cc1ccc(O)cc1)[C@@H](C)O)[C@@H](C)O)C(=O)N[C@@H](CO)C(=O)N[C@@H](CCCCN)C(=O)NC(C)(C)C(=O)N[C@@H](CC(C)C)C(=O)N[C@@H](CC(=O)O)C(=O)N[C@@H](CCCCN)C(=O)N[C@@H](CCC(N)=O)C(=O)N[C@@H](CCCNC(=N)N)C(=O)N[C@@H](CCC(N)=O)C(=O)N[C@@](C)(CC)C(=O)N[C@@H](CCC(=O)O)C(=O)N[C@@H](Cc1ccccc1)C(=O)N[C@H](C(=O)N[C@@H](CCCNC(=N)N)C(=O)N[C@@H](Cc1c[nH]cn1)C(=O)N[C@@H](CC(C)C)C(=O)N[C@@H](CC(C)C)C(=O)N[C@@H](CC(N)=O)C(=O)N[C@@H](CCCCN)C(=O)NC(C)(C)C(=O)N[C@H](C(=O)N[C@@H](CCCNC(=N)N)C(=O)N[C@@H](CCC(N)=O)C(=O)N[C@@H](CCCNC(=N)N)C(=O)N[C@@H](Cc1ccc(O)cc1)C(N)=O)[C@@H](C)O)C(C)C [Example 23] (H-Y[Aib]EGT[αMeF]TSDK([Gly-Gly-Gly-Gly-Palmitoyl])SK[Aib]LDKQRQ[Iva]EFVRHLLNK[Aib]TRQRY-NH2) | –
130 pM | – | – | CCCCCCCCCCCCCCCC(=O)NCC(=O)NCC(=O)NCC(=O)NCC(=O)NCCCC[C@H](NC(=O)[C@H](CC(=O)O)NC(=O)[C@H](CO)NC(=O)[C@@H](NC(=O)[C@](C)(Cc1ccccc1)NC(=O)[C@@H](NC(=O)CNC(=O)[C@H](CCC(=O)O)NC(=O)C(C)(C)NC(=O)[C@H](Cc1ccc(O)cc1)NC)[C@@H](C)O)[C@@H](C)O)C(=O)NC(C)(C)C(=O)N[C@H](C(=O)NC(C)(C)C(=O)N[C@@H](CC(C)C)C(=O)N[C@@H](CCC(=O)O)C(=O)N[C@@H](CCCCN)C(=O)N[C@@H](CCC(N)=O)C(=O)N[C@@H](CCCNC(=N)N)C(=O)N[C@@H](CCC(N)=O)C(=O)N[C@@](C)(CC)C(=O)N[C@@H](CCC(=O)O)C(=O)N[C@@H](Cc1ccccc1)C(=O)N[C@H](C(=O)N[C@@H](CCCNC(=N)N)C(=O)N[C@@H](Cc1c[nH]cn1)C(=O)N[C@@H](CC(C)C)C(=O)N[C@@H](CC(C)C)C(=O)N[C@@H](CC(N)=O)C(=O)N[C@@H](CCCCN)C(=O)NC(C)(C)C(=O)N[C@H](C(=O)N[C@@H](CCCNC(=N)N)C(=O)N[C@@H](CCC(N)=O)C(=O)N[C@@H](CCCNC(=N)N)C(=O)N[C@@H](Cc1ccc(O)cc1)C(N)=O)[C@@H](C)O)C(C)C)[C@@H](C)CC [Example 33] (H-[NMeY][Aib]EGT[αMeF]TSDK([Gly-Gly-Gly-Gly-Palmitoyl])[Aib]I[Aib]LEKQRQ[Iva]EFVRHLLNK[Aib]TRQRY-NH2) | −58.4%
1300 pM | 250 pM | 2600 pM | CC[C@H](C)[C@H](NC(=O)[C@H](CO)NC(=O)[C@H](CCCCNC(=O)CNC(=O)CNC(=O)CNC(=O)CNC(=O)CCCCCCCCCCCCCCCCC(=O)O)NC(=O)[C@H](CC(=O)O)NC(=O)[C@H](CO)NC(=O)[C@@H](NC(=O)[C@](C)(Cc1ccccc1)NC(=O)[C@@H](NC(=O)CNC(=O)[C@H](CCC(=O)O)NC(=O)C(C)(C)NC(=O)[C@H](Cc1ccc(O)cc1)NC)[C@@H](C)O)[C@@H](C)O)C(=O)NC(C)(C)C(=O)N[C@@H](CC(C)C)C(=O)N[C@@H](CCC(=O)O)C(=O)N[C@@H](CCCCN)C(=O)N[C@@H](CCC(N)=O)C(=O)N[C@@H](CCCNC(=N)N)C(=O)N[C@@H](CCC(N)=O)C(=O)N[C@@](C)(CC)C(=O)N[C@@H](CCC(=O)O)C(=O)N[C@@H](Cc1ccccc1)C(=O)N[C@H](C(=O)N[C@@H](CCCNC(=N)N)C(=O)N[C@@H](Cc1c[nH]cn1)C(=O)N[C@@H](CC(C)C)C(=O)N[C@@H](CC(C)C)C(=O)N[C@@H](CC(N)=O)C(=O)N[C@@H](CCCCN)C(=O)NC(C)(C)C(=O)N[C@H](C(=O)N[C@@H](CCCNC(=N)N)C(=O)N[C@@H](CCC(N)=O)C(=O)N[C@@H](CCCNC(=N)N)C(=O)N[C@@H](Cc1ccc(O)cc1)C(N)=O)[C@@H](C)O)C(C)C [Example 42] (H-[NMeY][Aib]EGT[αMeF]TSDK([Gly-Gly-Gly-Gly-C18 diacid])SI[Aib]LEKQRQ[Iva]EFVRHLLNK[Aib]TRQRY-NH2) | –
